From patent US9630956B2, “Compounds useful as inhibitors of ATR kinase” (Vertex Pharmaceuticals Incorporated, priority 2010, dated 2017)
Read-outs that look alike come from different tables or passages of the source.

Key:
full-length ATR = full-length ATR (Homo sapiens (Human), UniProt Q13535); assay: ATR Inhibition Assay (radioactive-phosphate incorporation); type: biochemical
Experimental: Compounds were screened for their ability to inhibit ATR kinase using a radioactive-phosphate incorporation assay. Assays were carried out in a mixture of 50 mM Tris/HCl (pH 7.5), 10 mM MgCl2 and 1 mM DTT. Final substrate concentrations were 10 μM [γ-33P]ATP (3 mCi 33P ATP/mmol ATP, Perkin Elmer) and 800 μM target peptide ([…]).
Assays were carried out at 25° C. in the presence of 5 nM full-length ATR. An assay stock buffer solution was prepared containing all of the reagents listed above, with the exception of ATP and the test compound of interest. 13.5 μL of the stock solution was placed in a 96 well plate followed by addition of 2 μL of DMSO stock containing serial dilutions of the test compound (typically starting from a final concentration of 15 μM with 3-fold serial dilutions) in duplicate (final DMSO concentration 7%). The plate was pre-incubated for 10 minutes at 25° C. and the reaction initiated by addition of 15 μL [γ-33P]ATP (final concentration 10 μM).
The reaction was stopped after 24 hours by the addition of 30 μL 0.1 M phosphoric acid containing 2 mM ATP. A multiscreen phosphocellulose filter 96-well plate (Millipore, Cat no. MAPHNOB50) was pretreated with 100 μL 0.2M phosphoric acid prior to the addition of 45 μL of the stopped assay mixture. The plate was washed with 5×200 μL 0.2M phosphoric acid. After drying, 100 μL Optiphase ‘SuperMix’ liquid scintillation cocktail (Perkin Elmer) was added to the well prior to scintillation counting (1450 Microbeta Liquid Scintillation Counter, Wallac).
After removing mean background values for all of the data points, Ki(app) data were calculated from non-linear regression analysis of the initial rate data using the Prism software package (GraphPad Prism version 3.0cx for Macintosh, GraphPad Software, San Diego Calif., USA).
Below is a chart showing the ATR Inhibition Ki values of compounds of the disclosure.

[1] = system: HCT116 colorectal cancer cells; assay: Cisplatin Sensitization Assay (96h cell viability MTS); type: cell-based; settings: concentration of compound required to reduce the IC50 of Cisplatin alone by at least 3-fold, 96h MTS
Experimental: Compounds can be screened for their ability to sensitize HCT116 colorectal cancer cells to Cisplatin using a 96h cell viability (MTS) assay. […] Compounds and Cisplatin are then both added simultaneously to the cell media in 2-fold serial dilutions from a top final concentration of 10 μM as a full matrix of concentrations in a final cell volume of 200 μl, and the cells are then incubated at 37° C. in 5% CO2. After 96h, 40 μl of […] (Promega G358a) is added to each well and the cells are incubated for 1 h at 37° C. in 5% CO2.

[2] = ATR Inhibition Ki(app), 10 μM ATP, 800 μM target peptide, 5 nM full-length ATR, 25° C.

full-length ATR, sequence (Q13535 whole entry): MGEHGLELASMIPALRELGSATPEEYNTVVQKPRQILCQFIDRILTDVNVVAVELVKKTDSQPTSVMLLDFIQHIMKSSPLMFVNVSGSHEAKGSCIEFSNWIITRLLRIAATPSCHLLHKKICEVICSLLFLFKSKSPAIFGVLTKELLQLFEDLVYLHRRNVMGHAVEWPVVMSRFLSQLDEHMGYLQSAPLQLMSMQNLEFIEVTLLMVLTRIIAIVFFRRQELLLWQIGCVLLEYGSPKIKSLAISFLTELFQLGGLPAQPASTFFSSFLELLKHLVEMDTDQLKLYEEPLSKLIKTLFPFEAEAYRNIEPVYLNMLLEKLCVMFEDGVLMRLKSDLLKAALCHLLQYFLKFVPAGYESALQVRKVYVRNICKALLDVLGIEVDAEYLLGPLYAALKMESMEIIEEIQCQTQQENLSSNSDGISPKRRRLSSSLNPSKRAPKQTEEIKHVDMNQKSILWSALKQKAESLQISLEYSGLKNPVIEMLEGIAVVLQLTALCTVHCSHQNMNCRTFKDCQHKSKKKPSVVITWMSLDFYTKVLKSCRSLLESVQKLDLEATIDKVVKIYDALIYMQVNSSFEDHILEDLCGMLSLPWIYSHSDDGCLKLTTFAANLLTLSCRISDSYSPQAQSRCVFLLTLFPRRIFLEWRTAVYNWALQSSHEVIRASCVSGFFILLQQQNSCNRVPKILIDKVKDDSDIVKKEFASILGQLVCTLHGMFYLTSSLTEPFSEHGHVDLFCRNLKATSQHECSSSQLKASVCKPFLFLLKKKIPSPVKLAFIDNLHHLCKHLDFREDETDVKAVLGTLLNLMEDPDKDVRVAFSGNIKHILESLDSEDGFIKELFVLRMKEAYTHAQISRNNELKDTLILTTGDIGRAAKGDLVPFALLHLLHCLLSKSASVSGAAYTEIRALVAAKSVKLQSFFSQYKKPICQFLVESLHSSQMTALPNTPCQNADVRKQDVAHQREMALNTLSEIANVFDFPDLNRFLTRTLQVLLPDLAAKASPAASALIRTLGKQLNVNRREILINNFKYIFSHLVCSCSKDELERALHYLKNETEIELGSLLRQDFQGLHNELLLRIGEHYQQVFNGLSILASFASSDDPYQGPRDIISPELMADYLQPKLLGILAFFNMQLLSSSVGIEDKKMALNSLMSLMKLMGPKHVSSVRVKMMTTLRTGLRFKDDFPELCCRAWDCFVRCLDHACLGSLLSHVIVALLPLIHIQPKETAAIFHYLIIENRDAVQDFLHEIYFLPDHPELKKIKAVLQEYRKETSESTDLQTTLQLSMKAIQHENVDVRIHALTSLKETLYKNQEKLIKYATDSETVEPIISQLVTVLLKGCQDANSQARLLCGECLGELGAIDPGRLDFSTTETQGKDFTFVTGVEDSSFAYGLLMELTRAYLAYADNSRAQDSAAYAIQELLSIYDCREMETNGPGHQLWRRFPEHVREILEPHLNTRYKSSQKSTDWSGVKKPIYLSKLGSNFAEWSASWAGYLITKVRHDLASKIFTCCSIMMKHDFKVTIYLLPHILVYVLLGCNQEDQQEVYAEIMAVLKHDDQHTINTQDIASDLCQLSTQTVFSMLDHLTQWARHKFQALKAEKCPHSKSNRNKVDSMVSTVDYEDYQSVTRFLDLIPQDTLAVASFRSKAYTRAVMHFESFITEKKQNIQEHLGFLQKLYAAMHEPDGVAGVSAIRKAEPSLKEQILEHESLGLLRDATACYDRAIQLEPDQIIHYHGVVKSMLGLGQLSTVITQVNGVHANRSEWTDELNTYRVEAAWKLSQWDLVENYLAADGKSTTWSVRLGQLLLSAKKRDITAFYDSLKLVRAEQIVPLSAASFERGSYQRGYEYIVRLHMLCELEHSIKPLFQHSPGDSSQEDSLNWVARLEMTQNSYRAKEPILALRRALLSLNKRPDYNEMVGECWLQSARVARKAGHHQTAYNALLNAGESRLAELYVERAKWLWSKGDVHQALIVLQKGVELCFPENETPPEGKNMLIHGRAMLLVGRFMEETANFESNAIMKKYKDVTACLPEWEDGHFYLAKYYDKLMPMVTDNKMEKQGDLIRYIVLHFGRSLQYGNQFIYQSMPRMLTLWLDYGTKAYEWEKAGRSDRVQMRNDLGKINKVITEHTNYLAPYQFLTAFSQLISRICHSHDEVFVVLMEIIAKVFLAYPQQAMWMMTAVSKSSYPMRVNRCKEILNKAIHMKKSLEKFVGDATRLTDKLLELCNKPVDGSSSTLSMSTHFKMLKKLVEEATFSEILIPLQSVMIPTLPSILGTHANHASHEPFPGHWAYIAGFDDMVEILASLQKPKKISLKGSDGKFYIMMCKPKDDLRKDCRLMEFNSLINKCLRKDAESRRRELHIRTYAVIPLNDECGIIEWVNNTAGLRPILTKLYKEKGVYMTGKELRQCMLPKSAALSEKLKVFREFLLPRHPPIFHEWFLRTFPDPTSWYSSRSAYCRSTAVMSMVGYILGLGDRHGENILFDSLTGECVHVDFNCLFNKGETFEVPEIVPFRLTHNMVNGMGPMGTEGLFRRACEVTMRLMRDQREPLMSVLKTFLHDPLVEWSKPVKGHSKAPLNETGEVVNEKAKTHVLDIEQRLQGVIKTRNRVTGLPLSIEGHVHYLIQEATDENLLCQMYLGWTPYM

Row | Compound | Ki (full-length ATR; [2]) | CP3 shift [1] | Ki (full-length ATR)
1 | CNCc1ccc(-c2nnc(-c3nc(-c4ccc(=O)n(C(C)C)c4)cnc3N)o2)cc1 [Compound I-3] | 5 to 50 nM | 0.234 µM | –
2 | CNCc1ccc(-c2nnc(-c3nc(-c4ccc(=O)n(C(C)C)c4)cnc3N)o2)c(OC)c1 [Compound I-6] | ≤ 5 nM | 0.156 µM | –
3 | CNCc1ccc(-c2cc(-c3nc(-c4ccc(=O)n(C(C)C)c4)cnc3N)on2)cc1 [Compound I-11] | ≤ 5 nM | 0.156 µM | –
4 | CNCc1ccc(-c2cc(-c3nc(-c4ccc(=O)n(C(C)C#N)c4)cnc3N)on2)cc1 (centres unmarked) [Compound I-15] | ≤ 5 nM | 0.039 µM | –
5 | CNCc1ccc(-c2cc(-c3nc(-c4ccc(=O)n(C5CCC(C)C5)c4)cnc3N)on2)cc1 (centres unmarked) [Compound I-22] | ≤ 5 nM | 0.02 µM | –
6 | CNCc1ccc(-c2nnc(-c3nc(-c4ccc(=O)n(C5CCCC5)c4)cnc3N)o2)c(OC)c1 [Compound I-32] | ≤ 5 nM | 0.079 µM | –
7 | CNCc1ccc(-c2nnc(-c3nc(-c4ccc(=O)n(C(C)C5CC5)c4)cnc3N)o2)c(OC)c1 (centres unmarked) [Compound I-37] | ≤ 5 nM | 0.078 µM | –
8 | CC(N)c1cccc(-c2nnc(-c3nc(-c4ccc(=O)n(C(C)C)c4)cnc3N)o2)c1 (centres unmarked) [Compound I-42] | ≤ 5 nM | 0.156 µM | –
9 | CNCc1cccc(-c2cc(-c3nc(-c4ccc(=O)n(C(C)C)c4)cnc3N)on2)c1 [Compound I-49, 5-(5-amino-6-(3-(3-((methylamino)methyl)phenyl)isoxazol-5-yl)pyrazin-2-yl)-1-isopropylpyridin-2(1H)-one] | – | 0.625 µM | 5 to 50 nM
10 | CC(C)(C)NCc1ccc(-c2cc(-c3nc(-c4ccc(=O)n(C5CCCC5)c4)cnc3N)on2)cc1 [Compound I-50] | ≤ 5 nM | 0.312 µM | –
11 | CNCc1ccc(-c2cc(-c3nc(-c4ccc(=O)n(C(C)C5CC5)c4)cnc3N)on2)c(F)c1 (centres unmarked) [Compound I-54] | ≤ 5 nM | 0.039 µM | –
12 | CC(N)c1cccc(-c2cc(-c3nc(-c4ccc(=O)n(C(C)C)c4)cnc3N)on2)c1 (centres unmarked) [Compound I-55] | ≤ 5 nM | 0.039 µM | –
13 | CC(N)c1cccc(-c2cc(-c3nc(-c4ccc(=O)n(C(C)C5CC5)c4)cnc3N)on2)c1 (centres unmarked) [Compound I-57, 5-(5-amino-6-(3-(3-(1-aminoethyl)phenyl)isoxazol-5-yl)pyrazin-2-yl)-1-(1-cyclopropylethyl)pyridin-2(1H)-one] | ≤ 5 nM | 0.02 µM | –
14 | CC(C)n1cc(-c2cnc(N)c(-c3cc(-c4ccc(CN[C@H]5CCOC5)cc4)no3)n2)ccc1=O [Compound I-58] | – | 0.312 µM | –
15 | CC(C)NCc1ccc(-c2cc(-c3nc(-c4ccc(=O)n(C(C)C)c4)cnc3N)on2)cc1 [Compound I-60] | ≤ 5 nM | 0.312 µM | –
16 | CC(C)n1cc(-c2cnc(N)c(-c3cc(-c4ccc(CNC5CC5)cc4)no3)n2)ccc1=O [Compound I-61] | ≤ 5 nM | 0.078 µM | –
17 | CNCc1ccc(-c2cc(-c3nc(-c4ccc(=O)[nH]c4)cnc3N)on2)cc1 [Compound I-76] | 5 to 50 nM | – | –
18 | CNCc1ccc(-c2cc(-c3nc(-c4ccc(=O)n(C(C)C5CC5)c4)cnc3N)on2)cc1 (centres unmarked) [Compound I-79] | ≤ 5 nM | – | –
19 | CNCc1ccc(-c2cc(-c3nc(-c4ccc(=O)n(Cc5nccs5)c4)cnc3N)on2)cc1 [Compound I-84] | ≤ 5 nM | – | –
20 | CNCc1ccc(-c2cc(-c3nc(-c4ccc(=O)n(Cc5nccn5C)c4)cnc3N)on2)cc1 [Compound I-85] | ≤ 5 nM | – | –
21 | CNCc1ccc(-c2cc(-c3nc(-c4ccc(=O)n(CC5CCCO5)c4)cnc3N)on2)cc1 (centres unmarked) [Compound I-86] | ≤ 5 nM | – | –
22 | CNCc1ccc(-c2cc(-c3nc(-c4c[nH]c(=O)c(CO)c4)cnc3N)on2)cc1 [Compound I-88] | ≤ 5 nM | – | –
23 | CNCc1ccc(-c2cc(-c3nc(-c4ccc(=O)n(C(C)C(=O)NC)c4)cnc3N)on2)cc1 (centres unmarked) [Compound I-91] | ≤ 5 nM | – | –
24 | CNCc1ccc(-c2cc(-c3nc(-c4ccc(=O)n(CCOC)c4)cnc3N)on2)cc1 [Compound I-95] | ≤ 5 nM | – | –
25 | CNCc1ccc(-c2cc(-c3nc(-c4ccc(=O)n(CC(N)=O)c4)cnc3N)on2)cc1 [Compound I-98] | ≤ 5 nM | – | –
26 | CC(C#N)n1cc(-c2cnc(N)c(-c3cc(-c4ccc(CNC5CC5)cc4)no3)n2)ccc1=O (centres unmarked) [Compound I-99] | ≤ 5 nM | – | –
